13 compounds from patent US10377743B2, “Inhibitors of RAS and methods of use thereof” (Araxes Pharma LLC, priority 2016, dated 2019) can be followed below.

SMILES strings stand for the structures.

In the assay the target is T1, KRAS G12C 1-169, his-tagged protein, GDP-loaded (Homo sapiens, UniProt P01116, G12C).
T1 construct: KRAS G12C 1-169, his-tagged protein, GDP-loaded
In words: Biochemical assay: covalent binding (modification %) to KRAS G12C by mass spectrometry. The following applies: 2 hour incubation period, 8 μM compound (compounds 21-92).
Turning to `C=CC(=O)N1CC(N2Cc3ccc(C(=O)N4CCC(N(C)C)C4)cc3C2=O)C1` (stereo not shown) [Compound 76, 2-(1-acryloylazetidin-3-yl)-6-(3-(dimethylamino)pyrrolidine-1-carbonyl)isoindolin-1-one], the Binding % result is on record as “+ (+ indicates binding activity up to 10%)”.

`C=CC(=O)N1CC(N2Cc3c(C(N)=O)cc(-c4c(C)ccc5[nH]ncc45)cc3C2=O)C1` [Compound 77, 2-(1-acryloylazetidin-3-yl)-6-(5-methyl-1H-indazol-4-yl)-1-oxoisoindoline-4-carboxamide]: the Binding % result is listed as “+ (+ indicates binding activity up to 10%)”.

Take `C=CC(=O)N1CC(N2Cc3ccc(N4CCCC(N(C)C)C4)cc3C2=O)C1` (stereo not shown) [Compound 78, 2-(1-acryloylazetidin-3-yl)-6-(3-(dimethylamino)piperidin-1-yl)isoindolin-1-one]: the Binding % result is “+ (+ indicates binding activity up to 10%)”.

As to `C=CC(=O)N1CC(N2Cc3ccc(C(=O)N4CCC(N)C4)cc3C2=O)C1` (stereo not shown) [Compound 79, 2-(1-acryloylazetidin-3-yl)-6-(3-aminopyrrolidine-1-carbonyl)isoindolin-1-one], the Binding % result is recorded as “+ (+ indicates binding activity up to 10%)”.

In the case of `C=CC(=O)N1CC(N2Cc3ccc(-c4ccc(C#N)cc4)cc3C2=O)C1` [Compound 80, 4-(2-(1-acryloylazetidin-3-yl)-3-oxoisoindolin-5-yl)benzonitrile], the Binding % result is “+ (+ indicates binding activity up to 10%)”.

With `C=CC(=O)N1CC(N2Cc3ccc(-c4ccc(C(N)=O)cc4)cc3C2=O)C1` [Compound 81, 4-(2-(1-acryloylazetidin-3-yl)-3-oxoisoindolin-5-yl)benzamide], the Binding % result is on record as “+ (+ indicates binding activity up to 10%)”.

As for `C=CC(=O)N1CC(N2Cc3ccc(-c4cc(O)cc5ccccc45)nc3C2=O)C1` [Compound 82, 6-(1-acryloylazetidin-3-yl)-2-(3-hydroxynaphthalen-1-yl)-5,6-dihydro-7H-pyrrolo[3,4-b]pyridin-7-one], the Binding % entry was “+ (+ indicates binding activity up to 10%)”.

`C=CC(=O)N1CC(N2Cc3c(C(N)=O)cc(-c4c(O)cccc4F)cc3C2=O)C1` [Compound 83, 2-(1-acryloylazetidin-3-yl)-6-(2-fluoro-6-hydroxyphenyl)-1-oxoisoindoline-4-carboxamide]: the Binding % entry is reported as “+ (+ indicates binding activity up to 10%)”.

Take `C=CC(=O)N1CC(N2Cc3ccc(C(=O)Nc4cn[nH]c4)cc3C2=O)C1` [Compound 84, 2-(1-acryloylazetidin-3-yl)-3-oxo-N-(1H-pyrazol-4-yl)isoindoline-5-carboxamide]: the Binding % result was “+ (+ indicates binding activity up to 10%)”.

For `C=CC(=O)N1CCC(N2Cc3c(C(N)=O)cc(-c4c(C)ccc5[nH]ncc45)cc3C2=O)C1` (stereo not shown) [Compound 85, 2-(1-acryloylpyrrolidin-3-yl)-6-(5-methyl-1H-indazol-4-yl)-1-oxoisoindoline-4-carboxamide], the Binding % entry was “+ (+ indicates binding activity up to 10%)”.

Consider `C=CC(=O)N1CC(N2Cc3ccc(NC(=O)c4cn[nH]c4)cc3C2=O)C1` [Compound 86, N-(2-(1-acryloylazetidin-3-yl)-3-oxoisoindolin-5-yl)-1H-pyrazole-4-carboxamide], for which the Binding % result is recorded as “+ (+ indicates binding activity up to 10%)”.

As to `C=CC(=O)N1CC(N2Cc3ccc(-c4c(C)ccc5[nH]ncc45)nc3C2=O)C1` [Compound 87, 6-(1-acryloylazetidin-3-yl)-2-(5-methyl-1H-indazol-4-yl)-5,6-dihydro-7H-pyrrolo[3,4-b]pyridin-7-one], the Binding % result was “+ (+ indicates binding activity up to 10%)”.

Consider `C=CC(=O)N1CC(N2Cc3ccc(-c4nc(N)ncc4C)cc3C2=O)C1` [Compound 88, 2-(1-acryloylazetidin-3-yl)-6-(2-amino-5-methylpyrimidin-4-yl)isoindolin-1-one], for which the Binding % entry is reported as “+ (+ indicates binding activity up to 10%)”.
